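Interpolation was linear, between the two tested concentrations surrounding the appropriate level; five concentrations were tested over 48 hours in 96-well plates. The concentration for 50% growth inhibition is given as GI50. TGI marks complete inhibition of growth.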
Legend:
Test in all cases: NCI tumour cell line growth inhibition, 48 h
OVCAR-5 ovarian = test system: OVCAR-5 ovarian
SK-OV-3 ovarian = test system: SK-OV-3 ovarian
MDA-MB-435 = test system: MDA-MB-435
CCRF-CEM leukemia = test system: CCRF-CEM leukemia
OVCAR-3 ovarian = test system: OVCAR-3 ovarian
SNB-19 CNS = test system: SNB-19 CNS
UACC-257 melanoma = test system: UACC-257 melanoma
NCI-H522 lung = test system: NCI-H522 lung
UO-31 renal = test system: UO-31 renal
UACC-62 melanoma = test system: UACC-62 melanoma
T-47D breast = test system: T-47D breast
ACHN renal = test system: ACHN renal
NCI-H226 lung = test system: NCI-H226 lung
SF-268 CNS = test system: SF-268 CNS
SK-MEL-2 melanoma = test system: SK-MEL-2 melanoma
IGROV1 ovarian = test system: IGROV1 ovarian
SF-539 CNS = test system: SF-539 CNS
HOP-92 NSCLC = test system: HOP-92 NSCLC
U251 CNS = test system: U251 CNS
RXF 393 renal = test system: RXF 393 renal
HL-60(TB) leukemia = test system: HL-60(TB) leukemia
OVCAR-8 ovarian = test system: OVCAR-8 ovarian
LOX IMVI melanoma = test system: LOX IMVI melanoma
HCT-15 colon = test system: HCT-15 colon
SK-MEL-5 melanoma = test system: SK-MEL-5 melanoma
PC-3 prostate = test system: PC-3 prostate
NCI/ADR-RES ovarian = test system: NCI/ADR-RES ovarian
TK-10 renal = test system: TK-10 renal

SMILES: Nc1ncnc2c1ncn2Cc1ccc(CCl)cc1
- TGI (OVCAR-5 ovarian): 35.2 µM
- GI50 (SK-OV-3 ovarian): 19.7 µM
- TGI (SK-OV-3 ovarian): 40.8 µM
- GI50 (MDA-MB-435): 15.4 µM
- TGI (MDA-MB-435): 32.9 µM
- GI50 (CCRF-CEM leukemia): 24.3 µM
- TGI (CCRF-CEM leukemia): > 100 µM
- GI50 (OVCAR-3 ovarian): 14.3 µM
- TGI (OVCAR-3 ovarian): 31.7 µM
- GI50 (SNB-19 CNS): 16 µM
- TGI (SNB-19 CNS): 37.8 µM
- GI50 (UACC-257 melanoma): 17.9 µM
- TGI (UACC-257 melanoma): 34.8 µM
- GI50 (NCI-H522 lung): 24 µM
- TGI (NCI-H522 lung): 51.9 µM
- GI50 (UO-31 renal): 22.3 µM
- TGI (UO-31 renal): 46.8 µM
- GI50 (UACC-62 melanoma): 19.6 µM
- TGI (UACC-62 melanoma): 34.6 µM
- GI50 (T-47D breast): 8 µM
- TGI (T-47D breast): 27.4 µM
- GI50 (ACHN renal): 19.4 µM
- TGI (ACHN renal): 34.8 µM
- GI50 (NCI-H226 lung): 20.6 µM
- TGI (NCI-H226 lung): 35.3 µM
- GI50 (SF-268 CNS): 21.8 µM
- TGI (SF-268 CNS): 57.9 µM
- GI50 (SK-MEL-2 melanoma): 32.6 µM
- TGI (SK-MEL-2 melanoma): 97.5 µM
- GI50 (IGROV1 ovarian): 25.8 µM
- TGI (IGROV1 ovarian): 66.5 µM
- GI50 (SF-539 CNS): 16.7 µM
- TGI (SF-539 CNS): 38.4 µM
- GI50 (HOP-92 NSCLC): 19 µM
- TGI (HOP-92 NSCLC): 51.6 µM
- GI50 (U251 CNS): 21.9 µM
- TGI (U251 CNS): 40.6 µM
- GI50 (RXF 393 renal): 20.3 µM
- TGI (RXF 393 renal): 62.2 µM
- GI50 (HL-60(TB) leukemia): 54.7 µM
- TGI (HL-60(TB) leukemia): > 100 µM
- GI50 (OVCAR-8 ovarian): 15.5 µM
- TGI (OVCAR-8 ovarian): 31.5 µM
- GI50 (LOX IMVI melanoma): 23.5 µM
- TGI (LOX IMVI melanoma): 51.7 µM
- GI50 (HCT-15 colon): 21.9 µM
- TGI (HCT-15 colon): 41.5 µM
- GI50 (SK-MEL-5 melanoma): 15.2 µM
- TGI (SK-MEL-5 melanoma): 28.5 µM
- GI50 (PC-3 prostate): 20.8 µM
- TGI (PC-3 prostate): 73.1 µM
- GI50 (NCI/ADR-RES ovarian): 18.7 µM
- TGI (NCI/ADR-RES ovarian): 44.5 µM
- GI50 (TK-10 renal): 18.1 µM
- TGI (TK-10 renal): 65.7 µM

— PubChem BioAssay (NCI)
